Here are results for 26 compounds from patent US9907800B2, “Kinase inhibitors and method of treating cancer” (University Health Network, priority 2010, dated 2018).

What is called IC50 is the midpoint of a concentration-inhibition curve.

One test deals with human PLK4 (Homo sapiens (Human), UniProt O00444). The experiment in a line: PLK4 inhibition assay (indirect ELISA). The class given is biochemical. Particulars: read-out: PLK4 IC50 Ranges. Background: ELISA stands for enzyme-linked immunosorbent assay.
The target in the next test is Aurora B (Homo sapiens (Human), UniProt Q96GD4). Briefly: Aurora B inhibition assay (Z-Lyte). The class given is biochemical. Particulars: read-out: Aurora B IC50 Ranges.

Structures can show the parent of a compound that is named as a salt.

Sequence of Aurora B (Q96GD4 whole entry): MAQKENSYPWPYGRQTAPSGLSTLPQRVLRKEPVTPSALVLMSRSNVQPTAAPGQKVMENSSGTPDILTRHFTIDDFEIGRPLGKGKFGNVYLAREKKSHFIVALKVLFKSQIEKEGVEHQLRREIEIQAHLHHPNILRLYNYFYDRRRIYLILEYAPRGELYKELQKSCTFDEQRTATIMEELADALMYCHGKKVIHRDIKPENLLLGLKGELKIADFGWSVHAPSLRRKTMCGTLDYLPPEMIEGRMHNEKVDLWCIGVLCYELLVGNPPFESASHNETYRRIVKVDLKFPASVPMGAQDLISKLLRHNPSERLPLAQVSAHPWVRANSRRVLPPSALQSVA
Sequence of human PLK4 (O00444 1-391): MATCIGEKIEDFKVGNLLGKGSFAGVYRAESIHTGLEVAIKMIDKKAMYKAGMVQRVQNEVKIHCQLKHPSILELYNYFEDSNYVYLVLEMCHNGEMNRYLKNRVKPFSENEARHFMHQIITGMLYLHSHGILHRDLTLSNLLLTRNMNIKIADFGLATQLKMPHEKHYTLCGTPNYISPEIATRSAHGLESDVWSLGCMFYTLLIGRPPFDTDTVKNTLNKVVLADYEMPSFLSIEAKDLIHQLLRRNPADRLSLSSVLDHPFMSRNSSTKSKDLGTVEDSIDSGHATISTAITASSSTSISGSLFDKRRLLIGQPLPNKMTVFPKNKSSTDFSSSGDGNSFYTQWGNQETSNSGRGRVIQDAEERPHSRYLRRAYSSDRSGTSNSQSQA
Description for Aurora B: Aurora B inhibition was determined using the Z-Lyte assay kit from Invitrogen. […] The % inhibition values were determined according to the manufacturer's directions and IC50 values were obtained using a non-linear 4 point logistic curve fit (XLfit4, IDBS)

As for `N#Cc1ccc(/C=C/c2n[nH]c3cc([C@@H]4C[C@@]45C(=O)Nc4ccccc45)ccc23)cc1` (relative stereo) [Example A54, 4-((E)-2-(6-((1R*,2S*)-2′-oxospiro[cyclopropane-1,3′-indoline]-2-yl)-1H-indazol-3-yl)vinyl)benzonitrile], the IC50 was < 100 nM on human PLK4 and 100 to 1000 nM on Aurora B.

For the compound `COc1ccc2c(c1)[C@]1(C[C@H]1c1ccc3c(-c4ccc(C5(F)CCN(C)CC5)cc4)n[nH]c3c1)C(=O)N2` [Example A124, (1R,2S)-2-(3-(4-(4-fluoro-1-methylpiperidin-4-yl)phenyl)-1H-indazol-6-yl)-5′-methoxyspiro[cyclopropane-1,3′-indolin]-2′-one 2,2,2-trifluoroacetate], on human PLK4, the IC50 is < 100 nM.

As for `COc1cc2c(cc1OC)[C@]1(C[C@H]1c1ccc3c(-c4ccc(N5CCN(C)CC5)cc4)n[nH]c3c1)C(=O)N2` (relative stereo) [Example A144, (1R*,2S*)-5′,6′-dimethoxy-2-(3-(4-(4-methylpiperazin-1-yl)phenyl)-1H-indazol-6-yl)spiro[cyclopropane-1,3′-indolin]-2′-one 2,2,2-trifluoroacetate], the IC50 at human PLK4 was 100 to 1000 nM.

Regarding `O=C1Nc2ccccc2[C@]12C[C@H]2c1ccc2c(/C=C/c3ccc4c(c3)CNCCO4)n[nH]c2c1` [Example A113, (1R,2S)-2-(3-((E)-2-(2,3,4,5-tetrahydrobenzo[f][1,4]oxazepin-7-yl)vinyl)-1H-indazol-6-yl)spiro[cyclopropane-1,3′-indolin]-2′-one 2,2,2-trifluoroacetate], the IC50 on human PLK4 was < 100 nM.

In the case of `O=C1Nc2ccccc2[C@]12C[C@H]2c1ccc2c(/C=C/c3ccccn3)n[nH]c2c1` (relative stereo) [Example A53, (1R*,2S*)-2-(3-((E)-2-(pyridin-2-yl)vinyl)-1H-indazol-6-yl)spiro[cyclopropane-1,3′-indolin]-2′-one], the IC50 on human PLK4 and at Aurora B was < 100 nM throughout.

Take `COc1ccc2c(c1)[C@]1(C[C@H]1c1ccc3c(-c4ccc5c(c4)CN(C)CC5)n[nH]c3c1)C(=O)N2` [Example A70, (1R,2S)-5′-methoxy-2-(3-(2-methyl-1,2,3,4-tetrahydroisoquinolin-7-yl)-1H-indazol-6-yl)spiro[cyclopropane-1,3′-indolin]-2′-one 2,2,2-trifluoroacetate salt]: the IC50 at human PLK4 and on Aurora B was < 100 nM in each case.

As to `O=C1Nc2ccccc2[C@]12C[C@H]2c1ccc2c(/C=C/c3csc(CN4CCOCC4)n3)n[nH]c2c1` [Example A77, (1R,2S)-2-(3-((E)-2-(2-(morpholinomethyl)thiazol-4-yl)vinyl)-1H-indazol-6-yl)spiro[cyclopropane-1,3′-indolin]-2′-one 2,2,2-trifluoroacetate salt], the half-inhibitory concentration (IC50) at human PLK4 was < 100 nM.

Consider `O=C1Nc2ncc(Br)cc2[C@]12C[C@H]2c1ccc2c(/C=C/c3cccnc3)n[nH]c2c1` (relative stereo) [Example A27, (1R*,2S*)-5′-bromo-2-(3-((E)-2-(pyridin-3-yl)vinyl-1H-indazol-6-yl)spiro[cyclopropane-1,3′-pyrrolo[2,3-b]pyridin]-2′(1′H)-one], for which the half-inhibitory concentration (IC50) on human PLK4 and at Aurora B was < 100 nM throughout.

Take `CN1C(=O)[C@@]2(C[C@H]2c2ccc3c(/C=C/c4ccc(N5CCNCC5)cc4)n[nH]c3c2)c2ccccc21` [Example A90, (1R,2S)-(E)-1′-methyl-2-(3-(4-(piperazin-1-yl)styryl)-1H-indazol-6-yl)spiro[cyclopropane-1,3′-indolin]-2′-one hydrochloride]: the IC50 at human PLK4 and at Aurora B was < 100 nM throughout.

Take `COc1ccc2c(c1)[C@]1(C[C@H]1c1ccc3c(-c4ccc(N5CCN(C6CCCCC6)CC5)cc4)n[nH]c3c1)C(=O)N2` [Example A193, (1R,2S)-2-(3-(4-(4-cyclohexylpiperazin-1-yl)phenyl)-1H-indazol-6-yl)-5′-methoxyspiro[cyclopropane-1,3′-indolin]-2′-one 2,2,2-trifluoroacetate]: the IC50 at human PLK4 and on Aurora B was < 100 nM throughout.

Take `CN1CCc2ccc(/C=C/c3n[nH]c4cc([C@@H]5C[C@@]56C(=O)Nc5ccccc56)ccc34)cc2C1` [Example A65, (1R,2S)-2-(3-((E)-2-(2-methyl-1,2,3,4-tetrahydroisoquinolin-7-yl)vinyl)-1H-indazol-6-yl)spiro[cyclopropane-1,3′-indolin]-2′-one 2,2,2-trifluoroacetate salt]: the concentration for half-maximal inhibition (IC50) at human PLK4 and at Aurora B was < 100 nM each time.

Take `COCCN1C(=O)[C@@]2(C[C@H]2c2ccc3c(/C=C/c4ccc(CN(C)C)cc4)n[nH]c3c2)c2ccccc21` (relative stereo) [Example A180, (1R*,2S*)-(E)-2-(3-(4-((dimethylamino)methyl)styryl)-1H-indazol-6-yl)-1′-(2-methoxyethyl)spiro[cyclopropane-1,3′-indolin]-2′-one 2,2,2-trifluoroacetate]: the IC50 on human PLK4 and at Aurora B was < 100 nM throughout.

Regarding `COc1ccc2c(c1)[C@]1(C[C@H]1c1ccc3c(/C=C/c4ccc(CN5CCOCC5)cc4)n[nH]c3c1)C(=O)N2C` [Example A102, (1R,2S)-(E)-5′-methoxy-1′-methyl-2-(3-(4-(morpholinomethyl)styryl)-1H-indazol-6-yl)spiro[cyclopropane-1,3′-indolin]-2′-one hydrochloride], the IC50 on Aurora B was < 100 nM.

For the compound `CCN(CC)Cc1ccc(/C=C/c2n[nH]c3cc([C@@H]4C[C@@]45C(=O)Nc4ccc(OC)cc45)ccc23)cc1` [Example A206, (1R,2S)-(E)-2-(3-(4-((diethylamino)methyl)styryl)-1H-indazol-6-yl)-5′-methoxy spiro[cyclopropane-1,3′-indolin]-2′-one 2,2,2-trifluoroacetate], the IC50 at human PLK4 and on Aurora B was < 100 nM each time.

Take `CN1CCC(Cc2ccc(/C=C/c3n[nH]c4cc([C@@H]5C[C@@]56C(=O)Nc5ccccc56)ccc34)cc2)CC1` [Example A81, (1R,2S)-(E)-2-(3-(4-((1-methylpiperidin-4-yl)methyl)styryl)-1H-indazol-6-yl)spiro[cyclopropane-1,3′-indolin]-2′-one 2,2,2-trifluoroacetate salt]: the IC50 on human PLK4 and on Aurora B was < 100 nM throughout.

`O=C1Nc2ccccc2[C@]12C[C@H]2c1ccc2c(I)n[nH]c2c1` [Example A10, (1R,2S)-2-(3-iodo-1H-indazol-6-yl)spiro[cyclopropane-1,3′-indolin]-2′-one]: the IC50 at Aurora B lay in the range of 100 to 1000 nM.

Take `O=C1Nc2ccccc2[C@]12C[C@H]2c1ccc2c(I)n[nH]c2c1` (relative stereo) [Example A9, (1R*,2S*)-2-(3-iodo-1H-indazol-6-yl)spiro[cyclopropane-1,3′-indolin]-2′-one]: the IC50 on Aurora B is 100 to 1000 nM.

For `COc1cc2c(cc1OC)[C@]1(C[C@H]1c1ccc3c(-c4cccc(CN5CCOCC5)c4)n[nH]c3c1)C(=O)N2` (relative stereo) [Example A143, (1R*,2S*)-5′,6′-dimethoxy-2-(3-(3-(morpholinomethyl)phenyl)-1H-indazol-6-yl)spiro[cyclopropane-1,3′-indolin]-2′-one 2,2,2-trifluoroacetate], the IC50 at human PLK4 was > 1000 nM.

With `COc1ccc2c(c1)[C@]1(C[C@H]1c1ccc3c(-c4csc(CN5CCOCC5)c4)n[nH]c3c1)C(=O)N2` [Example A125, (1R,2S)-5′-methoxy-2-(3-(5-(morpholinomethyl)thiophen-3-yl)-1H-indazol-6-yl)spiro[cyclopropane-1,3′-indolin]-2′-one 2,2,2-trifluoroacetate], the IC50 on human PLK4 is < 100 nM.

On to `CN1C(=O)[C@@]2(C[C@H]2c2ccc3c(-c4ccc(N5CCNCC5)cc4)n[nH]c3c2)c2ccccc21` (relative stereo) [Example A88, (1R*,2S*)-1′-methyl-2-(3-(4-(piperazin-1-yl)phenyl)-1H-indazol-6-yl)spiro[cyclopropane-1,3′-indolin]-2′-one 2,2,2-trifluoroacetate], for which the IC50 at human PLK4 was 100 to 1000 nM.

As for `COc1ccc2c(c1)[C@]1(C[C@H]1c1ccc3c(/C=C/c4ccc(CCN5CCOCC5)cc4)n[nH]c3c1)C(=O)N2` [Example A177, (1R,2S)-(E)-5′-methoxy-2-(3-(4-(2-morpholinoethyl)styryl)-1H-indazol-6-yl)spiro[cyclopropane-1,3′-indolin]-2′-one 2,2,2-trifluoroacetate], the IC50 on Aurora B was < 100 nM.

For the compound `COc1ccc2c(c1)[C@@]1(C[C@@H]1c1ccc3c(I)n[nH]c3c1)C(=O)N2` [Example A8, (1S,2R)-2-(3-iodo-1H-indazol-6-yl)-5′-methoxyspiro[cyclopropane-1,3′-indolin]-2′-one], at human PLK4, the half-inhibitory concentration (IC50) was > 1000 nM.

Regarding `C/C(=C\c1ccc(CN2CCOCC2)cc1)c1n[nH]c2cc([C@@H]3C[C@@]34C(=O)Nc3ccccc34)ccc12` [Example A114, (1R,2S)-2-(3-((E)-1-(4-(morpholinomethyl)phenyl)prop-1-en-2-yl)-1H-indazol-6-yl)spiro[cyclopropane-1,3′-indolin]-2′-one 2,2,2-trifluoroacetate], the concentration for half-maximal inhibition (IC50) on human PLK4 is < 100 nM.

Consider `O=C1Nc2ccccc2[C@]12C[C@H]2c1ccc2[nH]ncc2c1` (relative stereo) [Example A1, (1R*,2S*)-2-(1H-indazol-5-yl)spiro[cyclopropane-1,3′-indolin]-2′-one], for which the 50% inhibitory concentration (IC50) on human PLK4 was > 1000 nM.

As to `COc1ccc2c(c1)[C@]1(C[C@H]1c1ccc3c(-c4cccc(CCO)c4)n[nH]c3c1)C(=O)N2` (relative stereo) [Example A46, (1R*,2S*)-2-(3-(3-(2-hydroxyethyl)phenyl)-1H-indazol-6-yl)-5′-methoxy spiro[cyclopropane-1,3′-indolin]-2′-one], the half-inhibitory concentration (IC50) at human PLK4 is < 100 nM.

On to `CN1C(=O)[C@@]2(C[C@H]2c2ccc3c(/C=C/c4ccc(CN5CCCC5)cc4)n[nH]c3c2)c2ccccc21` [Example A115, (1R,2S)-(E)-1′-methyl-2-(3-(4-(pyrrolidin-1-ylmethyl)styryl)-1H-indazol-6-yl)spiro[cyclopropane-1,3′-indolin]-2′-one 2,2,2-trifluoroacetate], for which the IC50 on human PLK4 was < 100 nM.
